Measurements as given in patent publication US9861590B2, “Self-supporting films for delivery of therapeutic agents” (priority 2010, dated 2018).
Where a name gives a salt, the structure may show the parent alone.

Experiment: Saturation and payload limits for dip coating bupivacaine HCl solution on polyester mesh (FIG. 8)
Format: physicochemical
Settings: Parietex monofilament polyester mesh without polymer film
Excerpt: Further, it is believed that spraying films on a medical device (e.g., mesh) compared to other conventional methods, such as dip coating, provides increased loading of the therapeutic agent.
More particularly FIG. 8 illustrates the loading limits for a polyester mesh (Parietex™ monofilament mesh) without a polymer film.

saturation and payload limits for dip coating solution (solution in MeOH): 12 % w/v | saturation and payload limits for dip coating solution (solution in water): 5 % w/v
Structure (SMILES): CCCCN1CCCCC1C(=O)Nc1c(C)cccc1C (centres unmarked) [bupivacaine HCl, bupivacaine hydrochloride]
